Measured values: the Deep4Chem optical property database

Test: solvent given as SMILES

CCOC(=O)/N=c1/oc2cc(OC)ccc2cc1C#N gave an absorption maximum (in ClCCl) of 370 nm.
In the case of O=C1O/C(=C\c2cccs2)c2ccccc21, the absorption maximum (in CC#N) is reported as 355 nm.
Work on c1ccc2c(c1)Cc1ccccc1N2c1c2ccccc2c(N2c3ccccc3Cc3ccccc32)c2ccccc12 yielded an absorption maximum (in Cc1ccccc1) of 440 nm.
Compound CC(C)(C)c1ccc2c(c1)c1cc(C(C)(C)C)ccc1n2-c1ccc(N(c2ccc(-c3ccc4c(c3)C(C)(C)c3cc(-c5ccc(N(c6ccc(-n7c8ccc(C(C)(C)C)cc8c8cc(C(C)(C)C)ccc87)cc6)c6ccc(-n7c8ccc(C(C)(C)C)cc8c8cc(C(C)(C)C)ccc87)cc6)cc5)ccc3-4)cc2)c2ccc(-n3c4ccc(C(C)(C)C)cc4c4cc(C(C)(C)C)ccc43)cc2)cc1 has an absorption maximum (in ClCCl) of 373 nm.
Compound CCCCCCCCC1(CCCCCCCC)c2ccccc2-c2ccc(N(c3ccc(-n4c5ccccc5c5ccccc54)cc3)c3ccc4c(c3)C(CCCCCCCC)(CCCCCCCC)c3ccccc3-4)cc21 has an absorption maximum (in C1CCOC1) of 347 nm, an absorption maximum (in CC#N) of 345 nm and an absorption maximum (in CC(C)=O) of 345 nm. It also gave an absorption maximum (in CCCCCC) of 347 nm, an absorption maximum (in CCCCOCCCC) of 347 nm and an absorption maximum (in CCN(CC)CC) of 347 nm. It also gave an absorption maximum (in CCOC(C)=O) of 345 nm, an absorption maximum (in CCOCC) of 345 nm and an absorption maximum (in CN(C)C=O) of 345 nm. It also gave an absorption maximum (in Cc1ccccc1) of 348 nm and an absorption maximum (in ClCCl) of 348 nm.
Work on CCCCN(CCCC)c1ccc(C#Cc2cc(C#Cc3ccc(N(CCCC)CCCC)cc3)c(C#Cc3ccc(C#N)cc3)cc2C#Cc2ccc(C#N)cc2)cc1 yielded an absorption maximum (in ClCCl) of 435 nm.
Work on N#Cc1ccc(-n2c3ccccc3c3c2c2ccccc2n3-c2ccccc2)cc1 yielded an absorption maximum (in Cc1ccccc1) of 359 nm.
In the case of c1ccc(-c2nc3ccccc3nc2-c2cc(-c3nc4ccccc4nc3-c3ccccc3)cc(-n3c4ccccc4c4ccccc43)c2)cc1, the absorption maximum (in Cc1ccccc1) is reported as 340 nm.
Compound CCC1=C(C)C2=Cc3cc(I)c(I)n3[B-](F)(F)[N+]2=C1C has an absorption maximum (in C1CCCCC1) of 542 nm, an absorption maximum (in CC(C)=O) of 524.5 nm and an absorption maximum (in CCO) of 529 nm. It also gave an absorption maximum (in CCOC(C)=O) of 528 nm, an absorption maximum (in CO) of 526.5 nm and an absorption maximum (in OCC(F)(F)F) of 520 nm.
CC1=C(c2ccccc2)C(C)=[N+]2C1=C(c1c(-c3ccccn3)nc3ccccn13)c1c(C)c(-c3ccccc3)c(C)n1[B-]2(F)F gave an absorption maximum (in ClCCl) of 548 nm.
c1ccc2c(-c3cncnc3)c3ccccc3c(-c3cncnc3)c2c1 gave an absorption maximum (in CCO) of 394 nm and an absorption maximum (in ClCCl) of 397 nm.
For CC1=CC(C)=[N+]2C1=Cc1cccn1[B-]2(F)F, the absorption maximum (in CCCCCC) was 493 nm, the absorption maximum (in CO) was 493 nm and the absorption maximum (in ClCCl) was 498 nm.
CC(C)CN1C(=O)/C(=C/c2ccc([N+](=O)[O-])cc2)C=C1c1ccccc1 gave an absorption maximum (in C1COCCO1) of 456 nm.
With C1=Cc2ccccc2Cc2ccccc21 the absorption maximum (in CC#N) was 285 nm and the absorption maximum (in CO) was 285 nm.
For C=Cc1cc2ccc(OC(=O)c3ccccc3)cc2oc1=O, the absorption maximum (in CC#N) was 328 nm.
Compound CCN(CC)c1ccc2cc(-c3ccc(-c4ccc(-c5cc6ccccc6oc5=O)cc4)cc3)c(=O)oc2c1 has an absorption maximum (in ClCCl) of 409 nm.
N#Cc1ccc(C=C(c2ccccc2)c2ccccc2)cc1 showed an absorption maximum (in C1CCOC1) of 321 nm.
Work on COc1ccc(N(c2ccccc2)c2cc3ccc4cc(N(c5ccccc5)c5ccc(OC)cc5)cc5ccc(c2)c3c45)cc1 yielded an absorption maximum (in Cc1ccccc1) of 453 nm.
In the case of COCCC1=Cc2nc1ccc1[nH]c(c3nc(ccc4[nH]c2cc4CCOC)C(CCOC)=C3)c(CN(C)C)c1CCOC, the absorption maximum (in Cc1ccccc1) is reported as 643 nm.
In the case of c1ccc2c(c1)nc1ccccn12, the absorption maximum (in CC#N) is reported as 344 nm.
For CC1=[N+]2C(=C(Oc3ccc4c(c3)CC[C@@H]3[C@@H]4CC[C@]4(C)C(=O)CC[C@@H]34)c3ccc(C)n3[B-]2(F)F)C=C1c1cc2n(c1)[B-](F)(F)[N+]1=CC=CC1=C2c1c(C)cc(C)cc1C, the absorption maximum (in C1CCCCC1) was 579.5 nm and the absorption maximum (in CCOC(C)=O) was 574 nm.
Cc1ccsc1-c1ccc(-c2ccc(-c3sccc3C)s2)s1 gave an absorption maximum (in CCCCCCCCCCCCCC) of 382 nm.
Cc1cc(-c2ccc(C(C)(C)C)cc2)cc(C)[o+]1 showed an absorption maximum (in CC#N) of 345 nm and an absorption maximum (in ClCCl) of 365 nm.
For COc1ccc2ccccc2c1C1=CC(c2ccccc2)=C(c2ccccc2)C1, the absorption maximum (in ClCCl) was 340 nm.
In the case of CN1c2ccc(C(=O)c3ccccc3)cc2Sc2cc(C(=O)c3ccccc3)ccc21, the absorption maximum (in C1CCCCC1) is reported as 390 nm, the absorption maximum (in C1CCOC1) is reported as 402 nm and the absorption maximum (in CN(C)C=O) is reported as 407 nm. It also gave an absorption maximum (in Cc1ccccc1) of 405 nm, an absorption maximum (in ClC(Cl)Cl) of 407 nm and an absorption maximum (in ClCCl) of 408 nm.
CCOC(=O)c1ccccc1-c1c2ccc(=[N+](CC)CC)cc-2oc2c1c(=O)oc1cc3c(cc12)CCCN3C showed an absorption maximum (in CCO) of 602 nm, an absorption maximum (in ClC(Cl)Cl) of 608 nm and an absorption maximum (in O) of 602 nm.
Work on c1ccc(N(c2ccccc2)c2ccc(N(c3ccccc3)c3ccc4ccc5c(N(c6ccccc6)c6ccc(N(c7ccccc7)c7ccccc7)cc6)ccc6ccc3c4c65)cc2)cc1 yielded an absorption maximum (in ClCCl) of 438 nm.
With c1ccc(-c2nc(-c3cccc4ccccc34)n3ccccc23)cc1 the absorption maximum (in C1CCCCC1) was 362 nm, the absorption maximum (in CC#N) was 355 nm and the absorption maximum (in CO) was 350 nm. For the same compound, the absorption maximum (in ClCCl) was 357 nm and the absorption maximum (in O) was 367 nm.
Compound Cc1ccc2nc(/C=C/c3ccc(N(C)C)cc3)c(-c3ccccc3)nc2c1 has an absorption maximum (in C1COCCO1) of 430 nm, an absorption maximum (in CC#N) of 433 nm and an absorption maximum (in ClCCl) of 436 nm.
For O=C(c1sc(-c2ccc(-c3cc(-c4cccs4)c(C(=O)N4CCOCC4)s3)s2)cc1-c1cccs1)N1CCOCC1, the absorption maximum (in ClCCl) was 379 nm.
With CC1(C)C(/C=C/C2=C(Oc3ccc(CCN=C=S)cc3Cl)C(=C/C=C3/N(CCCS(=O)(=O)[O-])c4ccccc4C3(C)C)/CCC2)=[N+](CCCS(=O)(=O)[O-])c2ccccc21 the absorption maximum (in CO) was 768 nm.
